Patent publication US20110046378A1, “Novel Imaging Agents for Detecting Neurological Dysfunction” (SIEMENS MEDICAL SOLUTIONS USA, INC., priority 2008, published 2011)
pIC50: −log10 of the molar value. Like-named read-outs stand apart in the source and are kept apart here.

Experiments:
[1] = target: Aβ(1-42) Oligomers/Polymers (Homo sapiens, UniProt P05067); test: Biacore (SPR) screening on immobilized Aβ42 oligomers/soluble polymers; type: binding; parameters: Binding to oligomers/polymers (Aβ1-42): key to the marks not given beside the values; conditions: for BINDING LEVELS TO Aβ(1-42) Oligomers/Polymers: screening compounds at 10 uM
Chain of Aβ(1-42) Oligomers/Polymers (P05067 672-713 limits assumed): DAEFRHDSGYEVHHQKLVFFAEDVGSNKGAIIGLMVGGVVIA

[2] = target: Aβ(1-42) Fibrils (Homo sapiens, UniProt P05067); test: Biacore (SPR) screening on immobilized Aβ42 fibrils; type: binding; conditions: for BINDING LEVELS TO Aβ(1-42) Fibrils: screening compounds at 10 uM;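 for BINDING LEVELS TO Aβ(1-42) Fibrils: minus means no binding and more plus signs mean higher affinity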
Chain of Aβ(1-42) Fibrils (P05067 672-713 limits assumed): as above

[3] = system: Aβ monomer; conditions: read-out: Binding Affinity IC50; cited from earlier work
[4] = target: T1, Amyloid (AD patient's brain slice) (Homo sapiens, UniProt P05067); test: IC50 determination with [18F]-PiB by ex vivo competition assay using autoradiography staining; type: binding
T1 construct: The brain slices were 20 um thick
T1 sequence (P05067 672-711 limits assumed): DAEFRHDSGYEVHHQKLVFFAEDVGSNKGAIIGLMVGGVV
Excerpt: Ex Vivo Competition Assay Using Amyloid (AD patient's brain slice) Autoradiography Staining

[5] = determination 1, vs [18F]-PiB, read-out: IC50 1
[6] = determination 3, vs [18F]-PiB, read-out: IC50 3
[7] = determination 5, vs [18F]-PiB, read-out: IC50 5
[8] = determination 6, vs [18F]-PiB, read-out: IC50 6
[9] = determination 13, vs [18F]-PiB, read-out: IC50 13
[10] = mean of determinations, vs [18F]-PiB, read-out: Average IC50

Compound	BINDING LEVELS TO Aβ(1-42) Oligomers/Polymers [1]	BINDING LEVELS TO Aβ(1-42) Fibrils [2]	other results
Cc1cc(C)c2oc(-c3ccco3)c(O)c(=O)c2c1	+	−	
Cc1oc2cc(O)ccc2c(=O)c1-c1ccc(F)cc1	+	+	
Cc1ccc2c(c1)sc(-c1ccc(N(C)C)cc1)[n+]2C [Thioflavin T]			pIC50 [3]: < 3.30
CN(C)c1ccc2c(c1)[nH]c1cc(OCCOCCOCCF)ccc12 [CB-007, 7-(2-(2-(2-fluoroethoxy)ethoxy)ethoxy)-N,N-dimethyl-9H-carbazol-2-amine]			pIC50 [4, 5]: 6.59; pIC50 [4, 6]: 6.77; pIC50 [4, 7]: 6.70; pIC50 [4, 8]: 6.54; pIC50 [4, 9]: 6.52; pIC50 [4, 10]: 6.61
COc1cccc2oc(-c3ccccc3)cc(=O)c12	+	−	
O=CNc1ccc2c(c1)[nH]c1cc(OCCOCCOCCF)ccc12 [CB-010, N-(7-(2-(2-(2-fluoroethoxy)ethoxy)ethoxy)-9H-carbazol-2-yl)formamide]			pIC50 ([4]; determination 4, vs [18F]-PiB, read-out: IC50 4): 6.05; pIC50 [4, 10]: 6.05
CC1NCCc2cc(O)c(O)cc21 (centres unmarked)	++	+	
COc1c(-c2ccco2)oc2ccccc2c1=O	+	+	
O=c1cc(-c2ccccc2)oc2cc(O)ccc12	+	+	
O=c1c(O)c(-c2ccccc2)[nH]c2ccccc12	++++	++	
Oc1ccc2c(c1)[nH]c1ccccc12 [drawing 33]	+++	+	
Nc1ccc(O)c2ncccc12	++	+	
CCc1cc2c(=O)c(-c3ccc(F)cc3)c(C)oc2cc1O	+	−	
Cc1oc2c(C)c(O)ccc2c(=O)c1-c1nncn1-c1ccccc1	++	−	
CNc1ccc2c(c1)[nH]c1cc(OCCOCCOCCF)ccc12 [CB-004, 7-(2-(2-(2-fluoroethoxy)ethoxy)ethoxy)-N-methyl-9H-carbazol-2-amine]			pIC50 [4, 5]: 6.59; pIC50 [4, 6]: 6.46; pIC50 [4, 7]: 6.52; pIC50 [4, 8]: 6.52; pIC50 [4, 9]: 6.40; pIC50 [4, 10]: 6.49
Oc1ccc2c(c1)[nH]c1ccccc12 [drawing 135]			Binding to oligomers/polymers (Aβ1-42) ([1]; carbazole-based hits): +++; Binding to fibrils (Aβ1-42) ([2]; carbazole-based hits): +
O=c1c(O)c(-c2ccc(O)c(O)c2)oc2cc(O)ccc12	++++++	+++++	
COc1ccc2c(=O)c(-c3ccccc3)c(C)oc2c1OC	+	−	
O=c1cc(-c2ccccc2)c2ccc(O)c(O)c2o1	+++++	+++	
Nc1cccc(-c2cn(-c3cc(Cl)cc(Cl)c3)nn2)c1	+	+	
CCOc1ccc(Oc2c(C)oc3cc(O)ccc3c2=O)cc1	+	−	
Cc1nccc2c1[nH]c1cc(O)ccc12 [drawing 32]	++	+	
COc1cc(/C=C/C(=O)/C=C(O)/C=C/c2ccc(O)c(OC)c2)ccc1O [Curcumin]			pIC50 [3]: 4.70 to 5.00
Cc1cc(C)c2oc(-c3cccs3)c(O)c(=O)c2c1	+	−	
Fc1cc(F)cc(-c2cn(-c3ccc(F)cc3F)nn2)c1	++++	−	
